Consider 10 compounds from patent US11793823B2, “Compounds and pharmaceutical uses thereof” (SyneuRx International (Taiwan) Corp., priority 2020, dated 2023).

Counter-ions that a name gives are not always drawn.

Chain of human D-amino acid oxidase (hDAAO) (P14920 whole entry): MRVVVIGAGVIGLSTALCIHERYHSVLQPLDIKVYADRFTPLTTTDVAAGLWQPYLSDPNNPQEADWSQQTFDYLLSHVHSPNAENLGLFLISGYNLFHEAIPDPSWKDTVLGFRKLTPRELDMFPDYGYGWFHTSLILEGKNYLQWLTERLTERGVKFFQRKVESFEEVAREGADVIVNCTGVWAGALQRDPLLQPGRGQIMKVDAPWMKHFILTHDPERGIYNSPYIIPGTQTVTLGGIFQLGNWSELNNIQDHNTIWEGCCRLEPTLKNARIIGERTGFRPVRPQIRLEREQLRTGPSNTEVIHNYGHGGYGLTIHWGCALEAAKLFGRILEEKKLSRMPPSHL

This assay concerns the target human D-amino acid oxidase (hDAAO) (Homo sapiens (Human), UniProt P14920). The experiment in a line: In vitro human D-amino acid oxidase (hDAAO) activity, D-Serine/Amplex Red fluorescence. Type of assay: biochemical. The conditions noted are these: D-Serine substrate, 20 min. The method, then:
The hDAAO inhibitory activities were measured by using D-Serine as a substrate to produce H2O2. The produced H2O2 would be oxidized by peroxidase, and the produced free radicals would further react with Amplex Red reagent to emit fluorescence. The intensity of fluorescence at 590 nm would be measured to represent the activity of hDAAO. All compounds were dissolved in DMSO. Each compound was diluted with DMSO in 3-fold serial dilution to create a dose response curve. Each sample was added in triplicate, 1 µL/well, into 96-well black plates. Positive control wells were added with 1 μL of DMSO. Then 49 μL of assay buffer (100 mM Tris-HCl, pH 8.5) containing 1.2 ng/mL hDAAO, 900 nM FAD, 0.2 units/mL HRP, and 100 μM Amplex Red was added to each well of the plate using a multichannel pipette. Next, 50 μL of 100 mM D-Serine in assay buffer was added. The reaction plates were then incubated in the dark at room temperature. The fluorescence readout was detected at 0 and 20 mins by Molecular Device Gemini EM fluorescence reader using the following settings: excitation filter 530 nm, and emission filter 590 nm. The percentage of inhibition values for each well was calculated with the following equation: The percentage of inhibition=(fluorescence sample, 20 min−fluorescence sample, 0 min)/(fluorescence DMSO, 20 min−fluorescence DMSO, 0 min)×100%
The nonlinear curve fitting model in GraphPad Prism was used to calculate IC50 value for each compound.
`O=C(Oc1cc(C(=O)Oc2cc(C(=O)Oc3cc(C(=O)O[C@@H]4OC[C@@H](OC(=O)c5cc(O)c(O)c(OC(=O)c6cc(O)c(O)c(OC(=O)c7cc(O)c(O)c(OC(=O)c8cc(O)c(O)c(O)c8)c7)c6)c5)[C@H](OC(=O)c5cc(O)c(O)c(OC(=O)c6cc(O)c(O)c(OC(=O)c7cc(O)c(O)c(OC(=O)c8cc(O)c(O)c(O)c8)c7)c6)c5)[C@H]4OC(=O)c4cc(O)c(O)c(OC(=O)c5cc(O)c(O)c(OC(=O)c6cc(O)c(O)c(OC(=O)c7cc(O)c(O)c(O)c7)c6)c5)c4)cc(O)c3O)cc(O)c2O)cc(O)c1O)c1cc(O)c(O)c(O)c1` [Compound 128, (2S,3R,4S,5R)-tetrahydro-2H-pyran-2,3,4,5-tetrayl tetrakis(3-((3-((3,4-dihydroxy-5-((3,4,5-trihydroxybenzoyl)oxy)benzoyl)oxy)-4,5-dihydroxybenzoyl)oxy)-4,5-dihydroxybenzoate)] registered an IC50 of 3.3 nM.
For `O=C(Oc1cc(C(=O)Oc2cc(C(=O)Oc3cc(C(=O)Oc4cc(C(=O)O[C@H]5OC[C@@H](OC(=O)c6cc(O)c(O)c(OC(=O)c7cc(O)c(O)c(OC(=O)c8cc(O)c(O)c(OC(=O)c9cc(O)c(O)c(OC(=O)c%10cc(O)c(O)c(O)c%10)c9)c8)c7)c6)[C@H](OC(=O)c6cc(O)c(O)c(OC(=O)c7cc(O)c(O)c(OC(=O)c8cc(O)c(O)c(OC(=O)c9cc(O)c(O)c(OC(=O)c%10cc(O)c(O)c(O)c%10)c9)c8)c7)c6)[C@H]5OC(=O)c5cc(O)c(O)c(OC(=O)c6cc(O)c(O)c(OC(=O)c7cc(O)c(O)c(OC(=O)c8cc(O)c(O)c(OC(=O)c9cc(O)c(O)c(O)c9)c8)c7)c6)c5)cc(O)c4O)cc(O)c3O)cc(O)c2O)cc(O)c1O)c1cc(O)c(O)c(O)c1` [Compound 123, (2R,3R,4S,5R)-tetrahydro-2H-pyran-2,3,4,5-tetrayl tetrakis(3-((3-((3-((3,4-dihydroxy-5-((3,4,5-trihydroxybenzoyl)oxy)benzoyl)oxy)-4,5-dihydroxybenzoyl)oxy)-4,5-dihydroxybenzoyl)oxy)-4,5-dihydroxybenzoate)] the value was 2.4 nM; for `O=C(OC[C@H]1O[C@@H](OC(=O)c2cc(O)c(O)c(OC(=O)c3cc(O)c(O)c(OC(=O)c4cc(O)c(O)c(O)c4)c3)c2)[C@H](OC(=O)c2cc(O)c(O)c(OC(=O)c3cc(O)c(O)c(OC(=O)c4cc(O)c(O)c(O)c4)c3)c2)[C@@H]1OC(=O)c1cc(O)c(O)c(OC(=O)c2cc(O)c(O)c(OC(=O)c3cc(O)c(O)c(O)c3)c2)c1)c1cc(O)c(O)c(OC(=O)c2cc(O)c(O)c(OC(=O)c3cc(O)c(O)c(O)c3)c2)c1` [Compound 144, (2S,3R,4R,5R)-5-(((3-((3,4-dihydroxy-5-((3,4,5-trihydroxybenzoyl)oxy)benzoyl)oxy)-4,5-dihydroxybenzoyl)oxy)methyl)tetrahydrofuran-2,3,4-triyl tris(3-((3,4-dihydroxy-5-((3,4,5-trihydroxybenzoyl)oxy)benzoyl)oxy)-4,5-dihydroxybenzoate)], 8 nM; for `O=C(O)c1cc(O)c(O)c(OC(=O)c2cc(O)c(O)c(OC(=O)c3cc(O)c(O)c(OC(=O)c4cc(O)c(O)c(O)c4)c3)c2)c1` [Compound 149, 3-((3-((3,4-dihydroxy-5-((3,4,5-trihydroxybenzoyl)oxy)benzoyl)oxy)-4,5-dihydroxybenzoyl)oxy)-4,5-dihydroxybenzoic acid], 48 nM.
Compound `O=C(Oc1cc(C(=O)Oc2cc(C(=O)Oc3cc(C(=O)Oc4cc(C(=O)OC5CCCCCC5)cc(O)c4O)cc(O)c3O)cc(O)c2O)cc(O)c1O)c1cc(O)c(O)c(O)c1` [Compound 100, cycloheptyl 3-((3-((3-((3,4-dihydroxy-5-((3,4,5-trihydroxybenzoyl)oxy)benzoyl)oxy)-4,5-dihydroxybenzoyl)oxy)-4,5-dihydroxybenzoyl)oxy)-4,5-dihydroxybenzoate] displayed a 50% inhibitory concentration (IC50) of 19 nM.
Compound `O=C(O)c1cc(O)c(O)c(OC(=O)c2cc(O)c(O)c(OC(=O)c3cc(O)c(O)c(OC(=O)c4cc(O)c(O)c(OC(=O)c5cc(O)c(O)c(OC(=O)c6cc(CCc7ccc(F)cc7)n[nH]6)c5)c4)c3)c2)c1` [Compound 50, 3-((3-((3-((3-((3-((3-(4-fluorophenethyl)-1H-pyrazole-5-carbonyl)oxy)-4,5-dihydroxybenzoyl)oxy)-4,5-dihydroxybenzoyl)oxy)-4,5-dihydroxybenzoyl)oxy)-4,5-dihydroxybenzoyl)oxy)-4,5-dihydroxybenzoic acid] registered an IC50 of 38 nM.
For `O=C(O)c1cc(O)c(O)c(OC(=O)c2cc(O)c(O)c(OC(=O)c3cc(O)c(O)c(OC(=O)c4cc(O)c(O)c(OC(=O)c5cc(O)c(O)c(OC(=O)c6cc(O)c(O)c(OC(=O)c7cc(O)c(O)c(O)c7)c6)c5)c4)c3)c2)c1` [Compound 22, 3-((3-((3-((3-((3-((3,4-dihydroxy-5-((3,4,5-trihydroxybenzoyl)oxy)benzoyl)oxy)-4,5-dihydroxybenzoyl)oxy)-4,5-dihydroxybenzoyl)oxy)-4,5-dihydroxybenzoyl)oxy)-4,5-dihydroxybenzoyl)oxy)-4,5-dihydroxybenzoic acid] the value was 63 nM; for `O=C(Oc1cc(OC(=O)c2cc(O)c(O)c(OC(=O)c3cc(O)c(O)c(OC(=O)c4cc(O)c(O)c(OC(=O)c5cc(O)c(O)c(OC(=O)c6cc(O)c(O)c(O)c6)c5)c4)c3)c2)cc(OC(=O)c2cc(O)c(O)c(OC(=O)c3cc(O)c(O)c(OC(=O)c4cc(O)c(O)c(OC(=O)c5cc(O)c(O)c(OC(=O)c6cc(O)c(O)c(O)c6)c5)c4)c3)c2)c1)c1ccccc1` [Compound 103, 5-(benzoyloxy)-1,3-phenylene bis(3-((3-((3-((3,4-dihydroxy-5-((3,4,5-trihydroxybenzoyl)oxy)benzoyl)oxy)-4,5-dihydroxybenzoyl)oxy)-4,5-dihydroxybenzoyl)oxy)-4,5-dihydroxybenzoate)], 7 nM; for `O=C(Oc1cccnc1)c1cc(O)c(O)c(OC(=O)c2cc(O)c(O)c(OC(=O)c3cc(O)c(O)c(OC(=O)c4cc(O)c(O)c(OC(=O)c5cc(O)c(O)c(O)c5)c4)c3)c2)c1` [Compound 94, 5-((5-((5-((2,3-dihydroxy-5-((pyridin-3-yloxy)carbonyl)phenoxy)carbonyl)-2,3-dihydroxyphenoxy)carbonyl)-2,3-dihydroxyphenoxy)carbonyl)-2,3-dihydroxyphenyl 3,4,5-trihydroxybenzoate hydrochloride salt], 42 nM.
For `O=C(OC[C@H]1O[C@@H](OC(=O)c2cc(O)c(O)c(OC(=O)c3cc(O)c(O)c(OC(=O)c4cc(O)c(O)c(OC(=O)c5cc(O)c(O)c(OC(=O)c6cc(O)c(O)c(O)c6)c5)c4)c3)c2)[C@H](OC(=O)c2cc(O)c(O)c(OC(=O)c3cc(O)c(O)c(OC(=O)c4cc(O)c(O)c(OC(=O)c5cc(O)c(O)c(OC(=O)c6cc(O)c(O)c(O)c6)c5)c4)c3)c2)[C@@H]1OC(=O)c1cc(O)c(O)c(OC(=O)c2cc(O)c(O)c(OC(=O)c3cc(O)c(O)c(OC(=O)c4cc(O)c(O)c(OC(=O)c5cc(O)c(O)c(O)c5)c4)c3)c2)c1)c1cc(O)c(O)c(OC(=O)c2cc(O)c(O)c(OC(=O)c3cc(O)c(O)c(OC(=O)c4cc(O)c(O)c(OC(=O)c5cc(O)c(O)c(O)c5)c4)c3)c2)c1` [Compound 148, (2S,3R,4R,5R)-5-(((3-((3-((3-((3,4-dihydroxy-5-((3,4,5-trihydroxybenzoyl)oxy)benzoyl)oxy)-4,5-dihydroxybenzoyl)oxy)-4,5-dihydroxybenzoyl)oxy)-4,5-dihydroxybenzoyl)oxy)methyl)tetrahydrofuran-2,3,4-triyl tris(3-((3-((3-((3,4-dihydroxy-5-((3,4,5-trihydroxybenzoyl)oxy)benzoyl)oxy)-4,5-dihydroxybenzoyl)oxy)-4,5-dihydroxybenzoyl)oxy)-4,5-dihydroxybenzoate)] the value was 4 nM.
